According to patent US20180303141A1, “FLAVOR COMPOSITION FOR FOOD PRODUCTS” (NESTEC S.A., priority 2015, published 2018):

Experiments:
[1] = system: panel of 12 experienced tasters; assay: Comparison of the umami impression of a standard bouillon containing MSG and a bouillon with pea extract but no MSG (scale 0-10); type: in vivo, human; details: standard bouillon containing MSG; average of 12 tasters, 0=no umami, 10=strong umami
From the text: A standard bouillon containing no MSG but added pea extract was compared to the same standard bouillon containing MSG. A trained panel rated the bouillons on a scale from 0 (no umami) to 10 (strong umami). This gives evidence that the pea extract delivers a strong umami even it is less than to MSG itself, but the taste is received as being more natural and round mouthfeel instead of using MSG alone. […] The pea extract used was obtained by a blanching water process containing the composition as described in table 1. The results given are the average rating of a panel of 12 experienced tasters rating the umami intensity (0=no umami; 10=strong umami).

[2] = system: panel of six experienced tasters; assay: Evaluation of the umami impression of the pea extract in different bouillon bases (scale 0-3); type: in vivo, human; details: bouillon base containing sub-threshold MSG (60 mg/L), no pea extract; average of six tasters, 0=no umami, 3=strong umami
From the text: It is clear from Example 3 that the umami impression cannot be explained solely by the MSG content. The MSG taste threshold is described in the literature as between 0.255 and 0.5 g MSG/L (1.5-3 mmol/L) (Behrens, M., et al. (2011) Sweet and Umami Taste: Natural Products, Their Chemosensory Targets, and Beyond; Angew. Chem. Int. Ed., 50, 2220-2242). Therefore the MSG content for the Pisum sativum extract is below the taste threshold. To confirm the umami taste of the pea extract, all MSG containing ingredients (MSG, ribonucleotides and yeast extract) were removed from a standard bouillon. Pea extract was added. […] The effect of the addition of a pea extract to a bouillon base (which has no intrinsic umami taste) is to provide a strong umami taste. It is clear that the pea extract alone promotes umami taste, and that this effect is even greater in the presence of MSG.
The pea extract used was obtained by a blanching water process containing the composition as described in table 1.
The results given are the average rating of a panel of six experienced tasters rating the umami intensity (0=no umami; 1=umami barely perceivable; 2=umami clearly perceivable; 3=strong umami).

umami taste = assay: Fractionation of aqueous pea extract and analysis of the fractions with strong umami taste; details: compound identified in pea extract
Experimental: The applicant prepared an aqueous extract of pea, preferably green pea and then subjected that extract to fractionation.
The compounds were isolated and characterized using two-dimensional preparative chromatography. For example, size exclusion chromatography in the first dimension, then hydrophilic interaction column (normal phase) in a second dimension. Identification of compounds was carried out using conventional analytical methods such as LC-MS or NMR.

[3] = system: sensory panel of 6 trained persons; assay: Sensory evaluation of pea extract dissolved in water, umami intensity on a 3-point scale versus a control sample; type: in vivo, human; details: calculated for the example with pea extract containing 0.5% beta-R in water
Experimental: Different pea extract from Pisum sativum containing the composition as described in table 1 has been used to define the threshold concentrates in a sensory panel of 6 trained persons. The technical tasting was measured versus a control sample. Tasters were asked to judge the different products according to umami intensity on a 3-point scale.

| Molecule | Umami Rating [1] | Umami Rating [2] | Contribution to umami taste (in words) (umami taste) | threshold concentrate [3] [ppm] |
| --- | --- | --- | --- | --- |
| N[C@@H](CCC(=O)O)C(=O)[O-].[Na+] [MSG, Monosodium glutamate] | 5 | 0 |  |  |
| (5R)-(β-D-glucopyranosyloxy)-1,5-dihydro-2H-pyrrol-2-one [beta-R] |  |  | responsible to provide and enhance an umami taste | 147 |
